Our source for the IC50 values is patent US20260217697A1, “COMPOUNDS COMPRISING HETEROARYL RINGS AND COMPOSITIONS AND METHODS THEREOF” (lonGen Therapeutics Co., Ltd., priority 2022, published 2026).

As usually defined, the IC50 is the concentration that inhibits the measured activity by half. Read a low IC50 as greater potency.

Structures are written as SMILES.

For the experiment, the target named is T1, hTRPV3 (Homo sapiens, UniProt Q8NET8).
T1 construct: The commercially available plasmid with the full-length cDNA of hTRPV3 (791 aa) (NM_001258205.2); host or cells: HEK293T
T1 sequence (Q8NET8 1-791 isoform Q8NET8-2): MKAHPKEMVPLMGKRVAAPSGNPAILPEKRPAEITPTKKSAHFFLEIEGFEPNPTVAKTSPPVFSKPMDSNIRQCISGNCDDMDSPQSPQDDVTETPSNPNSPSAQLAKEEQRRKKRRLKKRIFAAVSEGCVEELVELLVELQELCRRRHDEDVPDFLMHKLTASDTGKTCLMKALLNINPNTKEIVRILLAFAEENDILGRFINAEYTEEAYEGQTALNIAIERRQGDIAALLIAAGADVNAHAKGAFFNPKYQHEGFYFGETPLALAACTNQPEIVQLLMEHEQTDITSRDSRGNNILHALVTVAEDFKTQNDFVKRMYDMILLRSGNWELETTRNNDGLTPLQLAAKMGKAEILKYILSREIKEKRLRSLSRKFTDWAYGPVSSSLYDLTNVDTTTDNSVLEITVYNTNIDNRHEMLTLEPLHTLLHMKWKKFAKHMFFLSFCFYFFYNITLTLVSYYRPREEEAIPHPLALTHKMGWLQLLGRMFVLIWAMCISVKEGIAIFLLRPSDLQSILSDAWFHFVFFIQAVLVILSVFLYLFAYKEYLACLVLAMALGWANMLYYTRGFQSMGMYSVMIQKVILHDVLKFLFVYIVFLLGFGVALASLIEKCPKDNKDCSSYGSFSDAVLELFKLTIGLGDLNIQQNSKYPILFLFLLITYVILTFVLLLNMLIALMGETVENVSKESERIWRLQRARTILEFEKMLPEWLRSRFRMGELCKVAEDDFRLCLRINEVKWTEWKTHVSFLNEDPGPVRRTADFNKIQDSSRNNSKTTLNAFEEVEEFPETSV
In words: Whole-cell patch-clamp recording of hTRPV3 current in transfected HEK293T cells (2-APB induced). The experiment is classed as cell-based. As to conditions: current induced by 300 μM 2-APB, compounds tested up to 10 μM, room temperature. A digest of the protocol: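 IC50 comes from Hill fits, 0–100% bounds, of percent block of 2-APB-induced current, with compounds perfused at up to 10 μM. Currents elicited at +80/−80 mV (400-ms steps, 2-s interval, 0 mV hold), room temperature, symmetric NaCl/EDTA/HEPES pH 7.4 solutions. Cells: hTRPV3-transfected HEK293T, used 18 h after transfection.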
For orientation: Patch clamp records ionic current or voltage across a cell membrane.
In turn, `CCC1(CC)Oc2cc(C(F)(F)F)ccc2-c2nc(NC(=O)c3c(OC)nc(C)nc3OC)sc21` [compound 162, N-(4,4-diethyl-7-(trifluoromethyl)-4H-chromeno[4,3-d]thiazol-2-yl)-4,6-dimethoxy-2-methylpyrimidine-5-carboxamide] returned an IC50 of 1 to 10 µM.

For the compound `COC(=O)CN1CC2(C1)Oc1cc(C(F)(F)F)ccc1-c1nc(NC(=O)c3c(OC)ncnc3OC)sc12` [compound 163], the IC50 was less than 0.1 µM.

The compound `COc1ncnc(OC)c1C(=O)Nc1nc2c(s1)C1(CN(CCN(C)C)C1)Oc1cc(C(F)(F)F)ccc1-2` [compound 164, N-(1-(2-(dimethylamino)ethyl)-7′-(trifluoromethyl)spiro[azetidine-3,4′-chromeno[4,3-d]thiazol]-2′-yl)-4,6-dimethoxypyrimidine-5-carboxamide] registered an IC50 of 1 to 10 µM.

Compound `COc1ncnc(OC)c1C(=O)Nc1nc2c(s1)C1(CN(CC(=O)O)C1)Oc1cc(C(F)(F)F)ccc1-2` [compound 165] came in with an IC50 of no less than 10 µM.

The compound `COc1ncnc(OC)c1C(=O)Nc1nc2c(s1)C1(CN(CCO)C1)Oc1cc(C(F)(F)F)ccc1-2` [compound 166, N-(1-(2-hydroxyethyl)-7′-(trifluoromethyl)spiro[azetidine-3,4′-chromeno[4,3-d]thiazol]-2′-yl)-4,6-dimethoxypyrimidine-5-carboxamide] showed an IC50 of 0.1 to 1 µM.

In turn, `COc1ncnc(OC)c1C(=O)Nc1nc2c(s1)C1(CN(C(C)(C)CC(C)=O)C1)Oc1cc(C(F)(F)F)ccc1-2` [compound 167, 4,6-dimethoxy-N-(1-(2-methyl-4-oxopentan-2-yl)-7′-(trifluoromethyl)spiro[azetidine-3,4′-chromeno[4,3-d]thiazol]-2′-yl)pyrimidine-5-carboxamide] registered a half-maximal inhibitory concentration (IC50) of 0.1 to 1 µM.

In turn, `COc1ncnc(OC)c1C(=O)Nc1nc2c([se]1)C1(CN(C(=O)OC(C)(C)C)C1)Oc1cc(C(F)(F)F)ccc1-2` [compound 168, tert-butyl 2′-(4,6-dimethoxypyrimidine-5-carboxamido)-7′-(trifluoromethyl)spiro[azetidine-3,4′-chromeno[4,3-d][1,3]selenazole]-1-carboxylate] showed an IC50 of 0.1 to 1 µM.
